Laboratory results from US8431529B2, “Bi-dentate compounds as kinase inhibitors” (Sanford-Burnham Medical Research Institute, priority 2007, dated 2013).
Non-standard residues stand in square brackets, D forms with d. Residues, ends and D or L forms follow the SMILES beside them. No end group written: not given here. *: point of attachment. X1 = O=C(NCCCN*)c1ccc(-c2n[nH]c3ccccc23)cc1

What was measured:
JNK1 [1] = biological target: T1, JNK1 (Homo sapiens, UniProt P45983); assay: DELFIA assay: displacement of biotinylated pepJIP1 (L-JIP1 peptide) from GST-JNK1; format: binding; settings: for Delfia Assay (Displacement of L-JIP1 peptide from JNK), ND class: Table 1, ND with footnote
Method: In order to define an optimal interacting docking peptide sequence for JNK, twenty peptide sequences were tested, which were derived from its putative substrates and scaffolding proteins, all presenting a D-domain consensus motif. Each peptide was tested for its ability to displace pepJIP1 (residues 153-164) from JNK1 by using a Dissociation Enhanced Lanthanide Fluoro-Immuno Assay (DELFIA) platform. DELFIA is a heterogeneous assay whereby a biotin-linked pepJIP1 is adsorbed onto a streptavidin-coated plate followed by incubation with GST-JNK1. Detection of the pepJIP1/GST-JNK1 complex is facilitated by a highly fluorescent anti-GST Eu-antibody conjugate (Perkin-Elmer).
DELFIA Assay (dissociation enhanced lanthanide fluoro-immuno assay). […] After 1 hr incubation and elimination of unbound biotin-pepJIP1 by 3 washing steps, 87 μL of Eu-labeled anti-GST antibody solution (300 ng/ml; 1.9 nM), 2.5 μL DMSO solution containing test compound, and 10 μL solution of GST-JNK1 for a final protein concentration of 10 nM was added. After 1 hr incubation at 0° C., each well was washed 5 times to eliminate unbound protein and the Eu-antibody if displaced by a test compound. Subsequently, 200 μL of enhancement solution (Perkin-Elmer) was added to each well and fluorescence measured after 10 min incubation (excitation wavelength, 340 nm; emission wavelength, 615 nm). Controls include unlabeled peptide and blanks receiving no compounds. Protein and peptide solutions were prepared in DELFIA buffer (Perkin-Elmer).

JNK1 [2] = biological target: T1, JNK1; assay: LanthaScreen TR-FRET in vitro kinase activity assay, JNK1 phosphorylation of ATF2; format: biochemical; settings: for Kinase Activity Assay (JNK), ND class: Table 1, ND with footnote
Method: LanthaScreen™ In vitro Kinase Assay. LanthaScreen™ assay platform from Invitrogen was utilized. The time-resolved fluorescence resonance energy transfer assay (TR-FRET) was performed in 384 well plates. Each well received JNK1 (100 ng/mL), ATF2 (200 nM), and ATP (1 μM) in 50 mM HEPES, 10 mM MgCl2, 1 mM EGTA and 0.01% Brij-35, pH 7.5 and test compounds. The kinase reaction was performed at room temperature for 1 hr. After this time, the terbium labeled antibody and EDTA were added into each well. After an additional hour incubation, the signal was measured at 520/495 nm emission ratio on a BMG Pherastar fluorescence plate reader.

p38α = p38α (Homo sapiens, UniProt Q16539); assay: LanthaScreen kinase activity assay with ATF2 substrate versus p38α; format: biochemical
Method: In order to confer further favorable pharmacological properties to this compound for in vivo studies, analogous to the clinical candidate D-JNK1^15, an all-D retro-inverso version of BI77B8 fused to the cell penetrating HIV-TAT sequence was prepared. […] LanthaScreen™ In vitro Kinase Assay. LanthaScreen™ assay platform from Invitrogen was utilized. The time-resolved fluorescence resonance energy transfer assay (TR-FRET) was performed in 384 well plates. […] After this time, the terbium labeled antibody and EDTA were added into each well. After an additional hour incubation, the signal was measured at 520/495 nm emission ratio on a BMG Pherastar fluorescence plate reader.

[3] = Table 1, read-out: Kinase Activity Assay (JNK) IC50
[4] = Table 2, read-out: IC50 (μM), Kinase Assay
[5] = Table 3, read-out: pepJIP Displacement IC50
[6] = JNK1, ATF2 substrate, read-out: Kinase Inhibition IC50
[7] = Table 1, read-out: Delfia Assay (Displacement of L-JIP1 peptide from JNK) IC50

T1 sequence (P45983 whole entry, species assumed, the tested form may be a part): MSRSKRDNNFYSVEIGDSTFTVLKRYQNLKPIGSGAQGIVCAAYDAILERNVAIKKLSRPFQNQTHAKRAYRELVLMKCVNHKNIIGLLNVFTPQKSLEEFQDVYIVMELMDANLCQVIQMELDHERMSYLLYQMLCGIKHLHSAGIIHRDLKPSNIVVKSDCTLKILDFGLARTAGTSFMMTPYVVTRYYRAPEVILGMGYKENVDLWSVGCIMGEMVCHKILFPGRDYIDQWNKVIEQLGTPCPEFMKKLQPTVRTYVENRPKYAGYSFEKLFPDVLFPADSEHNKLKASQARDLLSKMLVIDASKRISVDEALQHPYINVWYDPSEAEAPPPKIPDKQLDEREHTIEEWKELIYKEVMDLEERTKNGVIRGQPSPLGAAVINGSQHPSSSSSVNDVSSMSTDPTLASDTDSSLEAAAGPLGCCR
Chain of p38α (Q16539 whole entry, the tested form may be a part): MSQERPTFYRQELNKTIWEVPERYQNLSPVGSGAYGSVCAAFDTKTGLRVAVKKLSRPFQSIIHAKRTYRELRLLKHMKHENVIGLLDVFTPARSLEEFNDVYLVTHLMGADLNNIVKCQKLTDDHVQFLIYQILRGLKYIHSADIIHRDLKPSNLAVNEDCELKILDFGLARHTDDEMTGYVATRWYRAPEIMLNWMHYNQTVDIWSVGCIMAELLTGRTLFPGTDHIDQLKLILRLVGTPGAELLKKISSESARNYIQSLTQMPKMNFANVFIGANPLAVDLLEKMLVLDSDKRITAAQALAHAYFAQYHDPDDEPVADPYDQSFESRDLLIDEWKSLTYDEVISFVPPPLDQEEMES

NCCCNC(=O)c1ccc(-c2n[nH]c3ccccc23)cc1
Delfia Assay (Displacement of L-JIP1 peptide from JNK), ND class (JNK1 [1]): ND^*) (In the Delfia Assay, no displacement up to 100 μM)

CC(C)(C)OC(=O)NCCCNC(=O)c1ccc(-c2n[nH]c3ccccc23)cc1
Delfia Assay (Displacement of L-JIP1 peptide from JNK), ND class (JNK1 [1]): ND^*) (In the Delfia Assay, no displacement up to 100 μM) | IC50 (JNK1 [2]; [3]): 3.5 µM

COC(=O)c1ccc(-c2n[nH]c3ccccc23)cc1
IC50 (JNK1 [2]; [4]): 9.7 µM

NCCCNC(=O)c1ccc(-c2n[nH]c3ccc(NC(=O)Cc4cccs4)cc23)cc1
IC50 (JNK1 [2]; [4]): 1.9 µM

COC(=O)CCCNC(=O)c1ccc(-c2n[nH]c3ccccc23)cc1
IC50 (JNK1 [2]; [4]): 0.9 µM

CC(C)(C)OC(=O)NCCCNC(=O)c1ccc(-c2n[nH]c3ccc(NC(=O)Cc4cccs4)cc23)cc1
IC50 (JNK1 [2]; [4]): 1.2 µM

CC(C)(C)OC(=O)NCCCCCNC(=O)c1ccc(-c2n[nH]c3ccccc23)cc1
IC50 (JNK1 [2]; [4]): 2.3 µM

CN1CCN(CCC(=O)NCCCCCNC(=O)c2ccc(-c3n[nH]c4ccccc34)cc2)CC1
IC50 (JNK1 [2]; [4]): 4.5 µM

CC(C)CC(NC(=O)C(CC(N)=O)NC(=O)C(CC(C)C)NC(=O)C(NC(=O)C(NC(=O)C1CCCN1C(=O)C(N)CCCNC(=N)N)C(C)O)C(C)O)C(=O)NCC(=O)NCC(=O)NCCCNC(=O)c1ccc(-c2n[nH]c3ccccc23)cc1 (centres unmarked) [BI-77B8] (H-RPTTLNLGG-X1; configuration not given here)
Affinity in competition with pepJIP1 for JNK1 binding (JNK1 [1]): sub-nanomolar | IC50 (JNK1 [1]; [5]): 900 nM | Affinity in inhibition of JNK1 kinase activity (JNK1 [2]): sub-nanomolar | IC50 (JNK1 [2]; [6]): 0.7 µM | Improvement of kinase inhibition compared with pepJIP1 (JNK1 [2]; direct comparison with pepJIP1): over 100 fold

Ac-LNL-OH
Delfia Assay (Displacement of L-JIP1 peptide from JNK), ND class (JNK1 [1]): ND^*) (In the Delfia Assay, no displacement up to 100 μM) | Kinase Activity Assay (JNK), ND class (JNK1 [2]): ND^*) (in the Kinase Assay, no activity at 25 μM)

Ac-LNLGG-OH
Delfia Assay (Displacement of L-JIP1 peptide from JNK), ND class (JNK1 [1]): ND^*) (In the Delfia Assay, no displacement up to 100 μM) | Kinase Activity Assay (JNK), ND class (JNK1 [2]): ND^*) (in the Kinase Assay, no activity at 25 μM)

Ac-PTTLNLGG-OH
Delfia Assay (Displacement of L-JIP1 peptide from JNK), ND class (JNK1 [1]): ND^*) (In the Delfia Assay, no displacement up to 100 μM) | Kinase Activity Assay (JNK), ND class (JNK1 [2]): ND^*) (in the Kinase Assay, no activity at 25 μM)

Ac-RPTTLNL-OH [BI-77F10, Ac-RPTTLNL-OH]
IC50 (JNK1 [1]; [5]): 4500 nM | IC50 (JNK1 [2]; [6]): > 50 µM | Inhibition of JNK1 phosphorylation of ATF2 (JNK1 [2]; at concentrations up to 25 μM): unable to inhibit

Ac-RPTTLNLGG-OH
IC50 (JNK1 [1]; [7]): 18000 nM | inhibition at 50 µM (JNK1 [2]; at 50 μM, read-out: Kinase Activity Assay (JNK) % inhibition): 25%

Ac-tdqsrpvqpflnlttprrprpprrrqrrkkrg-OH [D-JNKI]
IC50 (JNK1 [1]; [5]): ~10000 nM | IC50 (JNK1 [2]; [6]): > 50 µM

AcGRKKRRQRRRGGRPTTLNLGG (Ac-GRKKRRQRRRGGRPTTLNLGG)
Kinase Activity Assay (JNK) % inhibition (JNK1 [2]; at 50 μM): 90% | Kinase Activity Assay (p38[…]) % at 50 μM (p38α): 6% at 50 μm

Compound I (RPTTLNLGG; also: conjugate per reaction scheme A)
Inhibitor activity compared with peptide Ac-RPTTLNLGG-OH and product 8 (JNK1 [1]; FIGS. 1A-1D, Delfia Assay): substantially more active | ATP competition analysis (JNK1 [2]; FIGS. 2A, 2B): competitive, at least to some extent | ATF2 competition analysis (JNK1 [2]; FIGS. 2C, 2D): competitive, at least to some extent | Selectivity relative to p38a (p38α; FIGS. 3A, 3B): good selectivity

GGLNLTTPRGGRRRQRRKKRG-NH2 (GG[dL][dN][dL][dT][dT][dP][dR]GG[dR][dR][dR][dQ][dR][dR][dK][dK][dR]G-NH2)
Kinase Activity Assay (JNK) % inhibition (JNK1 [2]; at 50 μM): 11% | Kinase Activity Assay (p38[…]) % at 50 μM (p38α): 0% at 50 μm

RPKRPTTLNLF
IC50 (JNK1 [1]; [7]): 2900 nM | IC50 (JNK1 [2]; [3]): 0.423 µM | Kinase Activity Assay (p38[…]) % at 50 μM (p38α): 6% at 50 μM
